Earlier results in patent publication US6472222B2, “Method of estimating rate of nicotine metabolism in individuals” (Via Christi Research, Inc., priority 1999, dated 2002).

Row | Structure (SMILES) | half-life (plasma) | half-life (biphasic elimination, second phase) (biphasic elimination, longer of two half-lives) [h] | half-life (biphasic elimination, first, short phase) (biphasic elimination, shorter of two half-lives)
1 | CN1C(=O)CC[C@H]1c1cccnc1 [cotinine] | approximately 19 hours |  | 
2 | CN1CCCC1c1cccnc1 (stereo not drawn) [nicotine] |  | ~2 | approximately 10 minutes
